Source: patent US20220402925A1, “COMPOUNDS AND METHODS FOR THE TREATMENT OF CYSTIC FIBROSIS” (Flatley Discovery Lab, LLC, priority 2019, published 2022)

Each compound was assayed against T1, F508del CFTR (Homo sapiens, UniProt P13569, DEL508-508) (assay: Equivalent current assay in primary CF airway epithelial cells (Corrector Activity, NAUC normalized to 3 μM VX809)). Conditions: NAUC as % of positive control (VX-809).
T1 construct: Primary CF airway epithelial cells were obtained from the UNC Cystic Fibrosis Tissue Procurement and Cell Culture Core; host or cells: primary CF airway epithelial cells
T1 sequence (P13569 with tags, fused parts or gaps DEL508-508): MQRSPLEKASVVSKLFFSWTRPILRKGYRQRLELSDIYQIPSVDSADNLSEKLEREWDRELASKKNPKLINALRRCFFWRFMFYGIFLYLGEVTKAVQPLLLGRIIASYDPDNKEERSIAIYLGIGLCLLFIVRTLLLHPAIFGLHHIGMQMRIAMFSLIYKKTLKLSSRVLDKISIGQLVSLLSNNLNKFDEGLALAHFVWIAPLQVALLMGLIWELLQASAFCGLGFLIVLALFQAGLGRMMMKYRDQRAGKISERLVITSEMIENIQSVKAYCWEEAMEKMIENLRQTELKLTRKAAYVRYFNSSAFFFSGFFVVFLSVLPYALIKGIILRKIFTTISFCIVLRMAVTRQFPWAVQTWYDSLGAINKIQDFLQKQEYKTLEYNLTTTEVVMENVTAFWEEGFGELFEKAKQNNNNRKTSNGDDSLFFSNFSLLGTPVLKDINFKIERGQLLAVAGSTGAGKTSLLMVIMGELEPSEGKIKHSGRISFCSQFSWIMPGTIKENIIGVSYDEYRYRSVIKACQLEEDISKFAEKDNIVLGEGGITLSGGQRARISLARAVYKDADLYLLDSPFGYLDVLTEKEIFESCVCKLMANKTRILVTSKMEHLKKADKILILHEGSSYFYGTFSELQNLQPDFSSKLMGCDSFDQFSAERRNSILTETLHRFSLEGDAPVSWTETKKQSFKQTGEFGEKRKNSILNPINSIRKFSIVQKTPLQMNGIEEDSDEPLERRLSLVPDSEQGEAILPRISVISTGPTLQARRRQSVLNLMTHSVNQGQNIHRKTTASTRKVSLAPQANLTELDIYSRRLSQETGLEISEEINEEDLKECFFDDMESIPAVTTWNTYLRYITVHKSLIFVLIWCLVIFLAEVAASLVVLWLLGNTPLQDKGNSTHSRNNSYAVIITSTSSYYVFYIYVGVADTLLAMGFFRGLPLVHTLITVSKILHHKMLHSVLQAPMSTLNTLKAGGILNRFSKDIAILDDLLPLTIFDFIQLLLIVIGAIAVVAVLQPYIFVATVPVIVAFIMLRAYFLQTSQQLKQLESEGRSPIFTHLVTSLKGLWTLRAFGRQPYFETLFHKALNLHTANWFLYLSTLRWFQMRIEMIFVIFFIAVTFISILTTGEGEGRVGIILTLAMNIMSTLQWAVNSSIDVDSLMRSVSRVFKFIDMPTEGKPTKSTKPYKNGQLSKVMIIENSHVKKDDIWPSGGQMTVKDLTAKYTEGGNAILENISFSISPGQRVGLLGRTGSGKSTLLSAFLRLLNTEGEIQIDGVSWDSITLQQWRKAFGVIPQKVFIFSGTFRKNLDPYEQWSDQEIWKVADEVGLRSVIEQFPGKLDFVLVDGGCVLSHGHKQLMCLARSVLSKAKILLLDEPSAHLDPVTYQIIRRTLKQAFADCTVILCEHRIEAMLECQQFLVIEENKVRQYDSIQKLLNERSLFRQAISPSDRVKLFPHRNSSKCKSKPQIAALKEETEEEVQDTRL
Type: cell-based
Outline: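 Readout is NAUC: current area from forskolin/potentiator addition until CFTR-172, minus vehicle, relative to 3 μM VX809 (=1.0). Cells were primary CF epithelia at air-liquid interface ≥4 weeks, given basolateral compound for 24 h at 37° C; median of n≥4 replicates, sigmoid fit with nH fixed at 1.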

Structure (SMILES)	Corr Activity (NAUC)
Cc1cc(F)cc(-c2nn(CC(=O)N(c3ccc4c(c3)OC(F)(F)O4)C3CC3)c(=O)c3nc[nH]c23)c1 [Example 385]	++ (NAUC 70-40% of positive control)
CCN(C(=O)Cn1nc(-c2cc(F)cc(C#N)c2)c2oc(C3CCC3)cc2c1=O)c1ccc2c(c1)OC(F)(F)O2 [Example 238]	++ (NAUC 70-40% of positive control)
CCN(C(=O)Cn1nc(-c2ccc(OC)c(C#N)c2)c2[nH]cnc2c1=O)c1ccc2c(c1)OC(F)(F)O2 [Example 346]	+++ (NAUC>70% of positive control)
CC(C)Oc1cc(-c2nn(CC(=O)N(c3ccc4c(c3)OC(F)(F)O4)C3CC3)c(=O)c3nc[nH]c23)cc(C(F)(F)F)c1 [Example 377]	+ (NAUC<40% of positive control)
Cc1cc2c(cc1N(C)C(=O)Cn1nc(-c3cc(C#N)cc(C(F)F)c3)c3oc(C(=O)NC(C)(C)C)cc3c1=O)OC(F)(F)O2 [Example 145]	++ (NAUC 70-40% of positive control)
CCN(C(=O)Cn1nc(-c2cccc(C#N)c2)c2occc2c1=O)c1cc2c(cc1C)OC(F)(F)O2 [Example 45]	+++ (NAUC>70% of positive control)
COC(=O)c1ccc(-c2nn(CC(=O)N(C)c3ccc4c(c3)OC(F)(F)O4)c(=O)c3ccoc23)cc1C#N [Example 95]	++ (NAUC 70-40% of positive control)
CN1C(=O)Cc2ccc(-c3nn(CC(=O)N(c4ccc5c(c4)OC(F)(F)O5)C4CC4)c(=O)c4nc[nH]c34)cc21 [Example 432]	+ (NAUC<40% of positive control)
CCN(C(=O)Cn1nc(-c2cc(C)cc(C#N)c2)c2oc(C(=O)NC(C)(C)C(F)(F)F)cc2c1=O)c1cc2c(cc1C)OC(F)(F)O2 [Example 151]	+++ (NAUC>70% of positive control)
N#Cc1cc(-c2nn(CC(=O)N(c3ccc4c(c3)OC(F)(F)O4)C3CC3)c(=O)c3nc[nH]c23)ccc1Cl [Example 445]	+++ (NAUC>70% of positive control)
CCN(C(=O)Cn1nc(-c2cc(F)cc(F)c2)c2occc2c1=O)c1ccc2c(c1)OC(F)(F)O2 [Example 175]	+++ (NAUC>70% of positive control)
CCN(C(=O)Cn1nc(-c2cc(C)cc(F)c2)c2occc2c1=O)c1ccc2c(c1)OC(F)(F)O2 [Example 83]	+++ (NAUC>70% of positive control)
CCN(C(=O)Cn1nc(-c2cc(C#N)cc(C(C)(C)C)c2)c2oc(C(F)F)cc2c1=O)c1ccc2c(c1)OC(F)(F)O2 [Example 188]	+++ (NAUC>70% of positive control)
CCN(C(=O)Cn1nc(-c2cc(F)cc(C#N)c2)c2occc2c1=O)c1cc2c(cc1C)OC(F)(F)O2 [Example 167]	+++ (NAUC>70% of positive control)
CCN(C(=O)Cn1nc(-c2cccc(C#N)c2)c2[nH]ccc2c1=O)c1ccc2c(c1)OC(F)(F)O2 [Example 503]	+++ (NAUC>70% of positive control)
Cc1cc(Cl)cc(-c2nn(CC(=O)N(C)c3ccc4c(c3)OC(F)(F)O4)c(=O)c3ccoc23)c1 [Example 85]	+++ (NAUC>70% of positive control)
CCN(C(=O)Cn1nc(-c2cccc(C#N)c2)c2c(c1=O)CCC2)c1ccc2nc(C)oc2c1 [Example 50]	+++ (NAUC>70% of positive control)
CCN(C(=O)Cn1nc(-c2cc(C)cc(C#N)c2)c2oc(C(=O)NC3(C(F)(F)F)CC3)cc2c1=O)c1ccc2c(c1)OC(F)(F)O2 [Example 152]	+++ (NAUC>70% of positive control)
O=C1Cc2ccc(-c3nn(CC(=O)N(c4ccc5c(c4)OC(F)(F)O5)C4CC4)c(=O)c4nc[nH]c34)cc2N1 [Example 426]	+ (NAUC<40% of positive control)
O=C(Cn1nc(-c2cc(C(F)(F)F)cc(C(F)(F)F)c2)c2[nH]cnc2c1=O)N(c1ccc2c(c1)OC(F)(F)O2)C1CC1 [Example 382]	+ (NAUC<40% of positive control)
CN(C(=O)Cn1nc(-c2cccc(C#N)c2)c2[nH]cnc2c1=O)c1ccc2c(c1F)OC(F)(F)O2 [Example 251]	+++ (NAUC>70% of positive control)
CCN(C(=O)Cn1nc(-c2cccc(C(C)(C)C)c2)c2occc2c1=O)c1ccc2c(c1)OC(F)(F)O2 [Example 88]	++ (NAUC 70-40% of positive control)

Structure (SMILES)	Corr Activity (NAUC)
Cc1cc2c(=O)n(CC(=O)N(C)c3ccc4c(c3)OC(F)(F)O4)nc(-c3cc(Cl)cc(Cl)c3)c2o1 [Example 70]	+++ (NAUC>70% of positive control)
CCN(C(=O)Cn1nc(-c2cccc(F)c2)c2[nH]ccc2c1=O)c1ccc2c(c1)OC(F)(F)O2 [Example 501, N-(2,2-difluorobenzo[d][1,3]dioxol-5-yl)-N-ethyl-2-(7-(3-fluorophenyl)-4-oxo-1,4-dihydro-5H-pyrrolo[2,3-d]pyridazin-5-yl)acetamide]	+++ (NAUC>70% of positive control)
CCN(C(=O)Cn1nc(-c2cc(C)cc(C#N)c2)c2oc(C(=O)NC3(C(F)(F)F)CC3)cc2c1=O)c1cc2c(cc1C)OC(F)(F)O2 [Example 154]	+++ (NAUC>70% of positive control)
N#Cc1cccc(-c2nn(CC(=O)N3CCCc4c3ccc3c4OC(F)(F)O3)c(=O)c3ccoc23)c1 [Example 52]	++ (NAUC 70-40% of positive control)
O=C(Cn1nc(-c2cccc(F)c2)c2[nH]cnc2c1=O)N1CCCc2c1ccc1c2OC(F)(F)O1 [Example 373]	+++ (NAUC>70% of positive control)
CN(C(=O)Cn1nc(-c2cccc(C#N)c2)c2oc(C(F)F)cc2c1=O)c1ccc2c(c1)OC(F)(F)O2 [Example 180, 2-(7-(3-cyanophenyl)-2-(difluoromethyl)-4-oxofuro[2,3-d]pyridazin-5(4H)-yl)-N-(2,2-difluorobenzo[d][1,3]dioxol-5-yl)-N-methylacetamide]	+++ (NAUC>70% of positive control)
N#Cc1cc(-c2nn(CC(=O)N(c3ccc4c(c3)OC(F)(F)O4)C3CC3)c(=O)c3nc[nH]c23)ccc1N1CCC1 [Example 487]	++ (NAUC 70-40% of positive control)
CCN(C(=O)Cn1nc(-c2cccc(C#N)c2)c2oc(C)cc2c1=O)c1ccc2c(c1)OC(F)(F)O2 [Example 69]	+++ (NAUC>70% of positive control)
CCN(C(=O)Cn1nc(-c2cc(C#N)cc(C(F)F)c2)c2occc2c1=O)c1ccc2c(c1)OC(F)(F)O2 [Example 99]	+++ (NAUC>70% of positive control)
CCN(C(=O)Cn1nc(-c2cccc(C#N)c2)c2oc(C(=O)NC(C)(C)C(F)(F)F)cc2c1=O)c1ccc2c(c1)OC(F)(F)O2 [Example 149]	+++ (NAUC>70% of positive control)
Cc1nc2ccc(N(C)C(=O)Cn3nc(-c4cccc(F)c4)c4oc5ccccc5c4c3=O)cc2o1 [Example 157]	++ (NAUC 70-40% of positive control)
CCN(C(=O)Cn1nc(-c2cc(Cl)cc(CO)c2)c2[nH]cnc2c1=O)c1ccc2c(c1)OC(F)(F)O2 [Example 282]	+ (NAUC<40% of positive control)
CCN(C(=O)Cn1nc(-c2cccc(Cl)c2)c2oc(C3CC3)cc2c1=O)c1ccc2c(c1)OC(F)(F)O2 [Example 230]	+++ (NAUC>70% of positive control)
CN(C(=O)Cn1nc(-c2cccc(Cl)c2)c2oc(C(F)F)cc2c1=O)c1ccc2c(c1)OC(F)(F)O2 [Example 185]	+++ (NAUC>70% of positive control)
CCN(C(=O)Cn1nc(-c2ccc(CC#N)c(F)c2)c2[nH]cnc2c1=O)c1ccc2c(c1)OC(F)(F)O2 [Example 317]	+ (NAUC<40% of positive control)
CN(C(=O)Cn1nc(-c2cccc(C#N)c2)c2oc(CN3CCCCC3)cc2c1=O)c1ccc2c(c1)OC(F)(F)O2 [Example 182, 2-(7-(3-cyanophenyl)-4-oxo-2-(piperidin-1-ylmethyl)furo[2,3-d]pyridazin-5(4H)-yl)-N-(2,2-difluorobenzo[d][1,3]dioxol-5-yl)-N-methylacetamide]	+++ (NAUC>70% of positive control)
CCN(C(=O)Cn1nc(-c2cccc(C#N)c2)c2oc(CN3CCOCC3)cc2c1=O)c1ccc2c(c1)OC(F)(F)O2 [Example 202]	+++ (NAUC>70% of positive control)
COc1cc(C#N)cc(-c2nn(CC(=O)N(c3ccc4c(c3)OC(F)(F)O4)C3CC3)c(=O)c3nc[nH]c23)c1 [Example 409]	++ (NAUC 70-40% of positive control)
CCN(C(=O)Cn1nc(-c2cc(Cl)cc(C#N)c2)c2oc(C(F)F)cc2c1=O)c1ccc2c(c1C)OC(F)(F)O2 [Example 196]	++ (NAUC 70-40% of positive control)
CCN(C(=O)Cn1nc(-c2ccc(Cl)c(OC)c2)c2[nH]cnc2c1=O)c1ccc2c(c1)OC(F)(F)O2 [Example 329]	+ (NAUC<40% of positive control)
CCN(C(=O)Cn1nc(-c2cc(F)cc(F)c2)c2oc(C3CC3)cc2c1=O)c1ccc2c(c1)OC(F)(F)O2 [Example 222]	+++ (NAUC>70% of positive control)
